Reference: the supplement of paper PMC11061612

Assays:
A673 (Ewing's Sarcoma) [1] = experiment: Bliss excess, mean over the matrix (fraction); higher = more synergy
How it was run: (§1)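 Cell lines in DMEM/F12 or RPMI with 10% FBS were plated in 1536-well plates, held 24 hours at 37°C, 5% CO2, then given two-drug dose matrices for 72 hours (DMSO typically 0.2%). Viability was read by CellTiter-Glo 2.0 luminescence and scaled as inhibition from 0 (vehicle wells) to 1 (blank wells). Combination Emax is the second-highest inhibition in the matrix; Bliss excess is observed combination effect minus expected EA + EB − EA·EB, EA and EB being single-agent effects.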

[2] = tested on: BE-13 (T-Lymphoblastic Leukemia); experiment: as above
How it was run: as §1

CAL-72 (Osteosarcoma) [3] = experiment: as above
How it was run: as §1

[4] = tested on: ESS-1 (Other Solid Carcinomas); experiment: as above
How it was run: as §1

EW-11 (Ewing's Sarcoma) [5] = experiment: as above
How it was run: as §1

GAMG (Glioblastoma) [6] = experiment: as above
How it was run: as §1

[7] = tested on: HH (T-Cell Non-Hodgkin's Lymphoma); experiment: as above
How it was run: as §1

[8] = tested on: HuCCT1 (Biliary Tract Carcinoma); experiment: as above
How it was run: as §1

KS-1 (Glioblastoma) [9] = experiment: as above
How it was run: as §1

[10] = tested on: KYAE-1 (Esophageal Adenocarcinoma); experiment: as above
How it was run: as §1

[11] = tested on: LNZTA3WT4 (Low Grade Glioma); experiment: as above
How it was run: as §1

LOXIMVI (Melanoma) [12] = experiment: as above
How it was run: as §1

[13] = tested on: LS-123 (Colorectal Carcinoma); experiment: as above
How it was run: as §1

MPP-89 (Mesothelioma) [14] = experiment: as above
How it was run: as §1

[15] = tested on: NCI-H524 (Small Cell Lung Carcinoma); experiment: as above
How it was run: as §1

[16] = tested on: OVCAR-5 (Ovarian Carcinoma); experiment: as above
How it was run: as §1

[17] = tested on: SAS (Oral Cavity Carcinoma); experiment: as above
How it was run: as §1

[18] = tested on: SNU-16 (Gastric Carcinoma); experiment: as above
How it was run: as §1

[19] = tested on: SNU-449 (Hepatocellular Carcinoma); experiment: as above
How it was run: as §1

[20] = tested on: SW1710 (Bladder Carcinoma); experiment: as above
How it was run: as §1

[21] = tested on: TGBC1TKB (Biliary Tract Carcinoma); experiment: as above
How it was run: as §1

[22] = tested on: WSU-NHL (B-Cell Non-Hodgkin's Lymphoma); experiment: as above
How it was run: as §1

[23] = tested on: YAPC (Pancreatic Carcinoma); experiment: as above
How it was run: as §1

A673 (Ewing's Sarcoma) [24] = experiment: combination Emax (second highest fraction inhibited in the dose matrix, 72 h); higher = more inhibition; extreme values may be limits of the assay
How it was run: as §1

[25] = tested on: BE-13 (T-Lymphoblastic Leukemia); experiment: as above
How it was run: as §1

CAL-72 (Osteosarcoma) [26] = experiment: as above
How it was run: as §1

[27] = tested on: ESS-1 (Other Solid Carcinomas); experiment: as above
How it was run: as §1

EW-11 (Ewing's Sarcoma) [28] = experiment: as above
How it was run: as §1

GAMG (Glioblastoma) [29] = experiment: as above
How it was run: as §1

[30] = tested on: HH (T-Cell Non-Hodgkin's Lymphoma); experiment: as above
How it was run: as §1

[31] = tested on: HuCCT1 (Biliary Tract Carcinoma); experiment: as above
How it was run: as §1

KS-1 (Glioblastoma) [32] = experiment: as above
How it was run: as §1

[33] = tested on: KYAE-1 (Esophageal Adenocarcinoma); experiment: as above
How it was run: as §1

[34] = tested on: LNZTA3WT4 (Low Grade Glioma); experiment: as above
How it was run: as §1

LOXIMVI (Melanoma) [35] = experiment: as above
How it was run: as §1

[36] = tested on: LS-123 (Colorectal Carcinoma); experiment: as above
How it was run: as §1

MPP-89 (Mesothelioma) [37] = experiment: as above
How it was run: as §1

[38] = tested on: NCI-H524 (Small Cell Lung Carcinoma); experiment: as above
How it was run: as §1

[39] = tested on: OVCAR-5 (Ovarian Carcinoma); experiment: as above
How it was run: as §1

[40] = tested on: SAS (Oral Cavity Carcinoma); experiment: as above
How it was run: as §1

[41] = tested on: SNU-16 (Gastric Carcinoma); experiment: as above
How it was run: as §1

[42] = tested on: SNU-449 (Hepatocellular Carcinoma); experiment: as above
How it was run: as §1

[43] = tested on: SW1710 (Bladder Carcinoma); experiment: as above
How it was run: as §1

[44] = tested on: TGBC1TKB (Biliary Tract Carcinoma); experiment: as above
How it was run: as §1

[45] = tested on: WSU-NHL (B-Cell Non-Hodgkin's Lymphoma); experiment: as above
How it was run: as §1

[46] = tested on: YAPC (Pancreatic Carcinoma); experiment: as above
How it was run: as §1
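For Bliss excess, mean over the matrix in this document: after 72 h of two-drug dosing.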

For `Cc1c2c(nn1C)CSCc1cc(n(C)n1)CSc1cc(c3ccccc3c1)OCCCc1c(C(=O)O)n(C)c3c-2c(Cl)ccc13` [AZD5991] + Nc1ccn([C@@H]2O[C@H](CO)[C@@H](O)C2(F)F)c(=O)n1 [Gemcitabine] (first compound max 1 µM, 7x7, partner max 0.3 µM), the Bliss excess (A673 (Ewing's Sarcoma) [1]) was -0.021, the Bliss excess [2] was -0.0088 and the Bliss excess (CAL-72 (Osteosarcoma) [3]) was 0.0305. The Bliss excess [4] was -0.0338, the Bliss excess (EW-11 (Ewing's Sarcoma) [5]) was -0.0422 and the Bliss excess (GAMG (Glioblastoma) [6]) was -0.0026. The Bliss excess [7] was -0.0369, the Bliss excess [8] was -0.0171 and the Bliss excess (KS-1 (Glioblastoma) [9]) was -0.0354. For the same molecule, the Bliss excess [10] was 0.0034, the Bliss excess [11] was 0.0625 and the Bliss excess (LOXIMVI (Melanoma) [12]) was -0.0338. The Bliss excess [13] was -0.0176, the Bliss excess (MPP-89 (Mesothelioma) [14]) was -0.0354 and the Bliss excess [15] was -0.0212. For the same molecule, the Bliss excess [16] was -0.0442, the Bliss excess [17] was -0.0223 and the Bliss excess [18] was 0.0183. It also gave a Bliss excess [19] of -0.0021, a Bliss excess [20] of -0.0571 and a Bliss excess [21] of 0.0006. The Bliss excess [22] was -0.0514, the Bliss excess [23] was -0.0165 and the “combination Emax” value (A673 (Ewing's Sarcoma) [24]) was 0.893. The “combination Emax” value [25] was 0.923, the “combination Emax” value (CAL-72 (Osteosarcoma) [26]) was 0.613 and the “combination Emax” value [27] was 0.961. For the same molecule, the “combination Emax” value (EW-11 (Ewing's Sarcoma) [28]) was 0.868, the “combination Emax” value (GAMG (Glioblastoma) [29]) was 0.662 and the “combination Emax” value [30] was 0.879. The “combination Emax” value [31] was 0.506, the “combination Emax” value (KS-1 (Glioblastoma) [32]) was 0.288 and the “combination Emax” value [33] was 0.127. The “combination Emax” value [34] was 0.633, the “combination Emax” value (LOXIMVI (Melanoma) [35]) was 0.835 and the “combination Emax” value [36] was 0.404. The “combination Emax” value (MPP-89 (Mesothelioma) [37]) was 0.428, the “combination Emax” value [38] was 0.788 and the “combination Emax” value [39] was 0.422. For the same molecule, the “combination Emax” value [40] was 0.924, the “combination Emax” value [41] was 1 and the “combination Emax” value [42] was 0.316. The “combination Emax” value [43] was 0.397, the “combination Emax” value [44] was 0.255 and the “combination Emax” value [45] was 0.967. For the same molecule, the “combination Emax” value [46] was 0.575.

Molecule `C[C@@H](Nc1cc(F)cc(F)c1)c1cc(C(=O)N(C)C)cc2c(=O)cc(N3CCOCC3)oc12` [AZD8186] + CC(=O)c1c(C)c2cnc(Nc3ccc(N4CCNCC4)cn3)nc2n(C2CCCC2)c1=O [Palbociclib] (first compound max 10 µM, 7x7, partner max 10 µM) has a Bliss excess (A673 (Ewing's Sarcoma) [1]) of 0.0743, a Bliss excess [2] of -0.0165 and a Bliss excess (CAL-72 (Osteosarcoma) [3]) of 0.0075. It also gave a Bliss excess [4] of -0.0114, a Bliss excess (EW-11 (Ewing's Sarcoma) [5]) of -0.0053 and a Bliss excess (GAMG (Glioblastoma) [6]) of -0.0098. The Bliss excess [7] was 0.0853, the Bliss excess [8] was 0.0428 and the Bliss excess (KS-1 (Glioblastoma) [9]) was 0.0069. It also gave a Bliss excess [10] of -0.0036, a Bliss excess [11] of 0.111 and a Bliss excess (LOXIMVI (Melanoma) [12]) of 0.0909. It also gave a Bliss excess [13] of 0.0701, a Bliss excess (MPP-89 (Mesothelioma) [14]) of -0.0317 and a Bliss excess [15] of -0.0531. The Bliss excess [16] was 0.0014, the Bliss excess [17] was -0.0006 and the Bliss excess [18] was 0.0891. The Bliss excess [19] was 0.0373, the Bliss excess [20] was 0.0531 and the Bliss excess [21] was 0.0239. For the same molecule, the Bliss excess [22] was -0.0144, the Bliss excess [23] was -0.0101 and the “combination Emax” value (A673 (Ewing's Sarcoma) [24]) was 0.479. For the same molecule, the “combination Emax” value [25] was 0.62, the “combination Emax” value (CAL-72 (Osteosarcoma) [26]) was 0.398 and the “combination Emax” value [27] was 0.552. The “combination Emax” value (EW-11 (Ewing's Sarcoma) [28]) was 0.428, the “combination Emax” value (GAMG (Glioblastoma) [29]) was 0.723 and the “combination Emax” value [30] was 0.413. The “combination Emax” value [31] was 0.479, the “combination Emax” value (KS-1 (Glioblastoma) [32]) was 0.428 and the “combination Emax” value [33] was 0.11. The “combination Emax” value [34] was 0.478, the “combination Emax” value (LOXIMVI (Melanoma) [35]) was 0.623 and the “combination Emax” value [36] was 0.478. For the same molecule, the “combination Emax” value (MPP-89 (Mesothelioma) [37]) was 0.317, the “combination Emax” value [38] was 0.571 and the “combination Emax” value [39] was 0.55. The “combination Emax” value [40] was 0.609, the “combination Emax” value [41] was 0.639 and the “combination Emax” value [42] was 0.391. The “combination Emax” value [43] was 0.585, the “combination Emax” value [44] was 0.534 and the “combination Emax” value [45] was 0.967. For the same molecule, the “combination Emax” value [46] was 0.349.
